Reference: ChEMBL document CHEMBL4184178, “Identification of potent lysophosphatidic acid receptor 5 (LPA5) antagonists as potential analgesic agents” (Bioorg Med Chem, 2018)
Active and inactive are the calls of the source. The rule behind the calls is not given here.

How the values were obtained:
[1] = molecular target: Lysophosphatidic acid receptor 5 (Rattus norvegicus, UniProt D4ADR1); assay: Antagonist activity at rat LPA5 receptor expressed in CHO cells assessed as inhibition of LPA-induced cAMP accumulation after 30 mins by Lance Ultra assay; type: cell-based
[2] = Brain to plasma partition coefficient, Kp of the compound in rat at 60 mg/kg, ip measured after 0.5 hrs by LC-MS analysis; type: ADME, organism-based
[3] = Plasma concentration in rat at 60 mg/kg, ip measured after 0.5 hrs by LC-MS analysis; type: ADME, organism-based
Rattus norvegicus [4] = assay: Analgesic effect in rat chronic constriction injury model assessed as reduction in mechanical allodynia at 60 mg/kg, ip by Von Frey test; type: functional, organism-based
[5] = Drug uptake in rat brain at 60 mg/kg, ip measured after 0.5 hrs by LC-MS analysis; type: ADME, organism-based; conditions: read-out: Drug uptake
Rattus norvegicus [6] = assay: Analgesic effect in rat chronic constriction injury model assessed as reduction in mechanical allodynia at 10 mg/kg, ip by Von Frey test; type: functional, organism-based

Chain of Lysophosphatidic acid receptor 5 (D4ADR1 whole entry): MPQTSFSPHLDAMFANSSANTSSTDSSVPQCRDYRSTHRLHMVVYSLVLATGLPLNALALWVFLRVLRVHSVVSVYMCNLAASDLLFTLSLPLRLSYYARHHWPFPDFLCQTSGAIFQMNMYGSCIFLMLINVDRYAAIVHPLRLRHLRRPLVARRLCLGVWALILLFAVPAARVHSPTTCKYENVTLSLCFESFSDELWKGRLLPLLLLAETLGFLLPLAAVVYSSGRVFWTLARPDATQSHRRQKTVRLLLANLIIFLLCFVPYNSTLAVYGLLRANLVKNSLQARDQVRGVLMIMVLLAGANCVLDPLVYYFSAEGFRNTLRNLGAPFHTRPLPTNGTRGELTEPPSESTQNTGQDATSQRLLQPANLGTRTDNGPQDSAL

| SMILES | IC50 [1] | also measured |
| --- | --- | --- |
| COc1cc2c(C(=O)N3CCCCCC3)cn(-c3ccc(C)c(C)c3)c(=O)c2cc1OC | 720 nM |  |
| COc1cc2c(C(=O)N3CCCCCC3)cn(-c3cccc(N(C)C)c3)c(=O)c2cc1OC | 130 nM |  |
| CCOc1ccc(-n2cc(C(=O)N3CCC(F)CC3)c3cc(OC)c(OC)cc3c2=O)cc1 | 750 nM |  |
| CCN1CCc2ccc(-n3cc(C(=O)N4CCC(F)CC4)c4cc(OC)c(OC)cc4c3=O)cc21 | 120 nM | Kp at 0.5 h [2]: 0.13; concentration at 0.5 h [3]: 9.06 µM; Activity (Rattus norvegicus [4]): Active; concentration at 0.5 h [5]: 1220 nM; Activity (Rattus norvegicus [6]): inactive |
| COc1cc2c(C(=O)N3CCCCCC3)cn(C(C)C)c(=O)c2cc1OC | > 30000 nM |  |
| CCCCCCN(C)C(=O)c1cn(-c2ccc(OCC)cc2)c(=O)c2cc(OC)c(OC)cc12 | > 10000 nM |  |
| CCN1CCc2ccc(-n3cc(C(=O)N4CCCCCC4)c4cc(OC)c(OC)cc4c3=O)cc21 | 110 nM |  |

Second part, led by results:

| IC50 [1] | SMILES | also measured |
| --- | --- | --- |
| > 3000 nM | COc1cc2c(C(=O)N3CCCCCC3)cn(-c3ccc(F)cc3)c(=O)c2cc1OC |  |
| 570 nM | CCc1ccc(-n2cc(C(=O)N3CCCCCC3)c3cc(OC)c(OC)cc3c2=O)cc1 |  |
| > 30000 nM | COc1cc2c(C(=O)N3CCCCCC3)cn(-c3ccc(C(N)=O)cc3)c(=O)c2cc1OC |  |
| 1800 nM | CCOc1ccc(-n2cc(C(=O)N3CCCCCC3)c3cc(OC)c(OC)cc3c2=O)cc1 |  |
